Experimental data from US11999669B1, “Nitrogen activator stabilizer for reducing and protecting nitrogen fertilizer” (KING FAISAL UNIVERSITY, priority 2023, dated 2024).

Assay: Dissolution of ABT-PNB in water
Format: physicochemical
Description: Referring to Scheme 2 above, reaction of 0.2 mmol ethyl cyanoacetate with 0.2 mmol thiourea under MW-US condition for 5 min afforded compound 1. One pot reaction of 0.1 mmole of the compound (1) with 0.1 mmole of 2-nitro-6-cyanobenzoic acid (2) in boiling 2 mL ethanol under MW reaction condition for 10 min afforded 6-(imidazo[4,5-d]pyrimidin-2yl) benzoic acid derivative 3. Reflux reaction of the 0.01 mol compound 3 with 0.02 mole ethylchloroacetate in 10 mL acetone for 5 h afforded the ester 4. US promoted reaction of the 0.01 mol of the compound 4 was allowed to react with 0.01 mol of 4-(dimethylamino)butylchloride, thereby affording the desired fertilized ionic liquid ABT-PNB.

CCOC(=O)CSc1nc2c(=O)n(CCCCN(C)C)c(-c3cccc([N+](=O)[O-])c3C(=O)O)nc2[nH]1 [ABT-PNB, 2-(1-(4-(dimethylamino)butyl)-8-((2-ethoxy-2-oxoethyl)thio)-6-oxo-6,9-dihydro-1H-purin-2-yl)-6-nitrobenzoic acid]
solubility in water: easily dissolved in water
